Test results taken from patent US12516131B2, “Methods for preventing acute kidney injury” (University of Maryland, Baltimore, priority 2018, dated 2026).
Like-named read-outs stand apart in the source and are kept apart here.

How the values were obtained:
[1] = Lability of reconstituted/diluted DIGIFAB (ouabain binding capacity after storage), protection by E-64; assay type: physicochemical; settings: E-64 at final concentration 1 μM in diluted DIGIFAB
Description: To maintain the immuno-neutralizing activity of stored dilute DIGIFAB samples, we tested the effect of the irreversible protease (primarily papain) inhibitor, E-64.

[2] = test system: renal ischemia/reperfusion (RIR) in Wistar rats; experiment: Example 1: plasma creatinine in rats following renal ischemia/reperfusion (45 min bilateral renal pedicle clamping); assay type: in vivo, rat; settings: Ouabain infusion (10 μg/kg/day) / Saline injection; n=9; ±SE
Procedure: FIG. 7. Effect of DIGIFAB on plasma creatinine in rats following renal ischemia/reperfusion (RIR). Normal male Wistar rats were implanted on “Day 0” with a subcutaneous minipump to deliver ouabain (10 μg/kg/day: open symbols) or vehicle (6 μl/day; solid symbols). Beginning on Day 13, half of the ouabain-infused rats and half of the vehicle-infused rats were injected with DigiFab (triangles), and the remainder (circles) were injected with an equal volume of saline: The DigiFab-treated rats received 0.2 ml DigiFab (10 mg/ml) at 15 hr and 6 hr, and 0.1 ml DigiFab 1 hr pre-operatively. […] Plasma creatinine was measured with a commercial creatinine enzymatic assay kit. […] The subsequent decline toward baseline (measured at 72 hrs; i.e., Day 17) was more rapid (i.e., the slope was steeper) in the DigiFab-injected rats than in the saline-injected rats. […]
Male Wistar ICS rats (˜300 g) on normal diet were implanted on “Day 0” with a subcutaneous minipump to deliver ouabain—see FIG. 7—(10 μg/kg/day; open symbols) or vehicle (6 μl/day; solid symbols). […] Plasma creatinine was measured after ultrafiltration with 10K filters using a slightly modified rat creatinine enzymatic assay kit (Crystal Chem, Inc., Elk Grove Village, IL). […] The subsequent decline toward baseline (measured at 72 hrs; i.e., Day 17) was more rapid (i.e., the slope was steeper) in the DigiFab-injected rats than in the saline-injected rats. […]

[3] = rats, cited from earlier work
[4] = test system: ischemia-induced renal injury; settings: somewhat similar rat model; cited from earlier work

## CC(C)C[C@H](NC(=O)[C@H]1C[C@@H]1C(=O)O)C(=O)NCCCCNC(=N)N [E-64, (1S,2S)-2-(((S)-1-((4-guanidinobutyl)amino)-4-methyl-1-oxopentan-2-yl)carbamoyl)cyclopropanecarboxylic acid]
[1]
  effect of E-64 on stability of DIGIFAB's ouabain binding capacity: markedly improved the stability

## C[C@@H]1O[C@@H](O[C@H]2C[C@@H](O)[C@]3(CO)[C@H]4[C@H](O)C[C@]5(C)[C@@H](C6=CC(=O)OC6)CC[C@]5(O)[C@@H]4CC[C@]3(O)C2)[C@H](O)[C@H](O)[C@H]1O [Ouabain]
[2]
  Percent Recovery of plasma creatinine toward baseline, 24 to 72 hrs post-op: 38.6±17.5%
[3]; ouabain infused chronically at 3 μg/Kg/24 hr
  steady state plasma level: ~1.95 nM
[3]; ouabain infused chronically at 10 μg/Kg/24 hr
  steady state plasma level: ~2.2 nM
[3]; ouabain infused chronically at 30 μg/Kg/24 hr
  steady state plasma level: ~4.8 nM

## C[C@]12CC[C@H](O)C[C@H]1CC[C@@H]1[C@@H]2CC[C@]2(C)[C@@](O)(c3ccoc3)CC[C@]12O [rostafuroxin]
[4]
  effect on ischemia-induced renal injury: attenuated ischemia-induced renal injury
